The text below walks through data of PubChem BioAssay AID1288 (Columbia University Molecular Screening Center, 2008).

In assay [1] the test system is human endothelial cells, TNFa-induced E-selectin, imaging. Description: inhibitors of TNFa-induced E-selectin expression, confirmation, imaging, retest plus dose response, cell count (AID 1288).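 On inhibition: 0% = stimulated vehicle wells and 100% = unstimulated vehicle wells.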
Experiment in assay [2]: as above
As to conditions: human endothelial cells, TNFa-induced E-selectin, imaging; for cell count: cell count toxicity, at 10 µM, stronger effect = lower value; for inhibition: at 2 µM, stronger effect = higher value.

Each structure is given as a SMILES string. Activity calls are given as the source filed them. How the calls were made is not given here.

Take `CN1/C(=C/C(=O)c2nc(S(C)(=O)=O)ncc2Cl)C(C)(C)c2ccccc21`: the IC50 in assay [1] was > 10 µM (inactive). Also, the cell count in assay [2] was 97.9%. Regarding `O=C(/C=C/c1cccc([N+](=O)[O-])c1)n1cnc2ccccc21`, the IC50 in assay [1] was 3.81 µM. Further, the cell count in assay [2] was 19.1%. As for `Cc1ccc(Cl)c(NC(=O)COC(=O)c2ccccc2C(=O)c2ccc(Cl)c([N+](=O)[O-])c2)c1Cl`, the IC50 in assay [1] was > 10 µM (inactive). In addition, in assay [2], the cell count was 96.8%.

On to `O=C(CS(=O)c1ccc(C(F)(F)F)cc1[N+](=O)[O-])Oc1ccccc1` (centres undefined), for which the IC50 in assay [1] is > 10 µM (inactive). Moreover, the cell count in assay [2] came to 88.5%. The matching figures for `COc1ccc(NC(=O)/C(Cl)=C(/Cl)S(=O)(=O)Cc2ccc(C)cc2)cn1`: > 10 µM (inactive) and 89.6%. For `CCOC(=O)CS(=O)(=O)c1nc(-c2ccccc2)cc(C(F)(F)F)n1`, the IC50 in assay [1] was > 10 µM (inactive). For the same molecule, the cell count in assay [2] was determined as 106%. `O=C(OCn1ncc(Cl)c(Cl)c1=O)c1ccc(F)cc1`: in assay [1], the IC50 is > 10 µM (inactive). The cell count in assay [2] came out at 107%.

Consider `O=C(OCn1ncc(Br)c(Br)c1=O)c1ccc(F)cc1`, for which, in assay [1], the IC50 is > 10 µM (inactive). Besides, in assay [2], the cell count is 53.9%. In the case of `O=C(OCn1ncc(Cl)c(Cl)c1=O)c1ccccc1Cl`, the IC50 in assay [1] was > 10 µM (inactive). The cell count in assay [2] was 45.3%. In the case of `Oc1ccc(N2CCN(c3ncnc4sc(-c5ccccc5)cc34)CC2)cc1`, the IC50 in assay [1] is 1.88 µM. Besides, the cell count in assay [2] worked out at 25.6%.

Turning to `Cn1c(SC2=CS(=O)(=O)c3ccccc32)nc2ccccc21`, in assay [1], the IC50 is 2.53 µM. Also, the cell count in assay [2] worked out at 13.4%. In the same order, the values of `CC(C)Oc1ccc(/C=N/NC(=O)C(CSCc2ccccc2)NC(=O)c2ccc([N+](=O)[O-])cc2)cc1` (centres undefined) are > 10 µM (inactive) and 71.8%.

With `COc1ccc(-n2c(COc3ccccc3)nnc2SCC(N)=O)cc1`, the inhibition in assay [2] is 42.3% (inactive). For the molecule `Cc1ccc(C(C)n2cc(C(=O)NCCN3CCN(C)CC3)nn2)cc1` (centres undefined), the inhibition in assay [2] is 22.4% (inactive). For `COc1ccc(OC)c(CN2CCN(C(=O)COc3cccc(C)c3)CC2)c1`, the inhibition in assay [2] was 9.14% (inactive).

As to `Cc1ccc(NC(=O)N2CCC(C(=O)NCCC3=CCCCC3)CC2)cc1`, the inhibition in assay [2] was 11.6% (inactive). The same measure, in the same setting: then `CCOc1ccc(OCC)c(NC(=O)CN2CCN(c3cccc(C)c3)CC2)c1`, with -3.01% (inactive); and `CCN1CCN(Cc2cc(OC)c(OC)cc2[N+](=O)[O-])CC1`, with 12.6% (inactive); and `O=C(NCc1nc(-c2ccccc2)no1)c1ccc2c(c1)OCO2`, with 24.1% (inactive). With `COC(=O)c1cc2sc(Cl)cc2n1CC(=O)Nc1cccc(SC)c1`, the inhibition in assay [2] was 2.57% (inactive). With `O=C(CN1CCN(c2ccccc2F)CC1)c1c[nH]c2ccccc12`, the inhibition in assay [2] is -2.26% (inactive). Turning to `COc1ccc(C2N=C(N)N=C(N)N2c2ccccc2)cc1OC` (centres undefined), in assay [2], the inhibition is 23% (inactive).

Take `O=C(O)CSC1c2ccccc2C(=O)N1Cc1ccccc1` (centres undefined): the inhibition in assay [2] is 2.25% (inactive).

Take `O=C(Nc1cccc(-c2cn3ccccc3n2)c1)c1cccc(Cl)c1`: the inhibition in assay [2] is 8.96% (inactive). For the molecule `CC(=O)C1=C(C)NC(SCc2cccc3ccccc23)=C(C#N)C1c1ccco1` (centres undefined), the inhibition in assay [2] was 5.13% (inactive).

On to `CCN(CC)S(=O)(=O)c1ccc(-c2nnc(SCC(=O)Nc3ccc(OC)cc3)o2)cc1`, for which the inhibition in assay [2] was 23.9% (inactive). For `CCOC(=O)C[n+]1c(C)sc2ccc(OC)cc21`, in assay [2], the inhibition is 5.31% (inactive). On to `CCOC(=O)c1sc2nc(CSc3nc4ccccc4n3CC)[nH]c(=O)c2c1C`, for which the inhibition in assay [2] was -2.72% (inactive).

For the molecule `Cc1ccc(S(=O)(=O)N2CCN(C(=O)C3COc4ccccc4O3)CC2)cc1C` (centres undefined), in assay [2], the inhibition was -0.52% (inactive). Still for that read-out and setting: the value for `Fc1ccc(CNc2nc(-c3ccccc3)nc3ccccc23)cc1` was 26.5% (inactive); that for `C=CCOc1c(Br)cc(CNn2nnnc2N)cc1OC` was 3.16% (inactive); that for `O=C(CSc1nnc(CNc2ccc(F)cc2)o1)N1CCCc2ccccc21` was 2.29% (inactive).

For the molecule `C=CCn1c(SCC(=O)NCc2ccccc2)nnc1-c1ccccc1O`, the inhibition in assay [2] is -0.67% (inactive).

`COC(=O)C1=NN(c2cccc(C)c2)C2C(=O)N(c3ccccc3OC)C(=O)C12` (centres undefined): the inhibition in assay [2] was 8.46% (inactive).

Turning to `O=c1[nH]c2cc(NCCO)c([N+](=O)[O-])cc2[nH]1`, the inhibition in assay [2] was 15.2% (inactive). Consider `CN(C)S(=O)(=O)c1cc(NC(=O)CN2C(=O)NC3(CCCc4ccccc43)C2=O)ccc1Cl` (centres undefined), for which, in assay [2], the inhibition is 4.67% (inactive). Still for that read-out and setting: the value for `COc1ccc2c(c1)c1ncn(CCCN3CCOCC3)c(=O)c1n2C` was 1.07% (inactive). With `CN(C)S(=O)(=O)N1CCN(CC(=O)Nc2cc(Cl)ccc2Cl)CC1`, the inhibition in assay [2] was -3.1% (inactive).

Take `COc1ccccc1CCNC(=O)c1cnccn1`: the inhibition in assay [2] is 16.6% (inactive). Same read-out and setting: the value for `CCCSc1nc(C)c(-c2csc(C(C#N)=C3CCCC3)n2)cc1C#N` was 8.04% (inactive); that for `COc1ccc(S(=O)(=O)Cc2ccc(C(=O)N3CCOCC3)o2)cc1` was 26.4% (inactive); that for `O=C1C=C(c2ccccc2)C(O)(c2ccccc2)C1` (centres undefined) was -0.71% (inactive). In the case of `CCOCc1nnc(NC(=O)CCc2ccccc2)s1`, the inhibition in assay [2] was 9.8% (inactive). Consider `COC(=O)CCC(=O)Nc1nc(-c2ccccc2)cs1`, for which the inhibition in assay [2] was 16.6% (inactive). For the molecule `CS(=O)(=O)N(CC(=O)NCCC1=CCCCC1)C1CCCCC1`, in assay [2], the inhibition was -0.77% (inactive). On the same count and under the same terms, the value for `Cc1ccc(C2(O)CN(c3ccccc3C)C3=[N+]2CCS3)cc1` (centres undefined) was 2.57% (inactive); that for `C/C(=N\Nc1cccc2cccnc12)c1ccccc1O` was -0.47% (inactive); that for `Cc1cccc(N2CCN(c3cccc(C)c3)C2c2cccnc2)c1` was 5.98% (inactive). Consider `O=C(O)c1cc2nc(-c3ccc(F)cc3)cc(C(F)(F)F)n2n1`, for which the inhibition in assay [2] is 8.45% (inactive). As for `COc1cc(NC2c3ncccc3C(=O)N2Cc2ccco2)cc(OC)c1` (centres undefined), the inhibition in assay [2] is 7.75% (inactive). Regarding `N/C(Cc1cccc2ccccc12)=N\OC(=O)c1ccc2c(c1)OCO2`, the inhibition in assay [2] is 6.4% (inactive). Turning to `Cc1ccc(C2(C)NC(=O)N(CCOc3ccccc3)C2=O)cc1` (centres undefined), the inhibition in assay [2] is 3.16% (inactive). For the molecule `CCCCCn1c(SCC#N)nc2cc(C(=O)NCC3CCCO3)ccc2c1=O` (centres undefined), the inhibition in assay [2] was 7.32% (inactive).

Regarding `O=C(N/N=C/c1ccc(C(F)(F)F)cc1)c1ccc(O)cc1`, in assay [2], the inhibition is 4.56% (inactive).

Take `O=C(CN1CCN(Cc2ccccc2Cl)C1=O)NCc1ccco1`: the inhibition in assay [2] is 8.68% (inactive).

For `COc1cccc(C(C(=O)NC(C)(C)C)N(C(=O)CCC(=O)Nc2cc(C)on2)C2CC2)c1OC` (centres undefined), the inhibition in assay [2] was 2.4% (inactive).

On to `CCN1C(=O)c2cccc3c(NC(=O)c4cccc(N5C(=O)CCC5=O)c4)ccc1c23`, for which the inhibition in assay [2] was 0.82% (inactive). Consider `O=C(c1cccc(F)c1)N1CCN(c2cc(N3CCCCC3)c(F)cc2[N+](=O)[O-])CC1`, for which the inhibition in assay [2] is 4.49% (inactive). Same read-out and setting: the value for `O=c1[nH]cnc2cc(-c3ccccc3)sc12` was 7.67% (inactive). For the molecule `Oc1ccccc1Nc1nc(NCC2CCCO2)c2ccccc2n1` (centres undefined), the inhibition in assay [2] is 5.39% (inactive). As to `O=C(c1ccc(COCC(F)(F)F)o1)N1CCCCCC1`, the inhibition in assay [2] is 5.74% (inactive). `c1ccc(-n2c(Sc3cnccn3)nnc2-c2cccs2)cc1`: in assay [2], the inhibition was 8.66% (inactive). Consider `O=C1N(c2ccccc2)C2CS(=O)(=O)CC2N1c1ccc(Br)cc1` (centres undefined), for which, in assay [2], the inhibition was 10.8% (inactive). In the case of `COCCCNCCCCOc1ccc(OCc2ccccc2)cc1`, the inhibition in assay [2] was -0.12% (inactive).

In the case of `Cc1ccc(N2C(=O)[C@@H]3C(C(=O)CCN4C(=O)c5ccccc5C4=O)=NN[C@@H]3C2=O)cc1`, in assay [2], the inhibition is 6.74% (inactive). For the molecule `O=C(NC1CCCCC1)C(c1cccs1)N(C(=O)c1ccco1)c1ccc2c(c1)OCCO2` (centres undefined), the inhibition in assay [2] was 8.94% (inactive).

For the molecule `O=C(Nc1ccc2nsnc2c1)c1ccc2c(c1)OCO2`, the inhibition in assay [2] is 7.37% (inactive). Consider `COc1ccc(-c2ccc(C(=S)N3CCN(C(C)=O)CC3)o2)cc1`, for which, in assay [2], the inhibition was 3.01% (inactive).

On to `O=C1CC(c2ccccc2)CC2=C1CN(C1CCCCC1)CN2` (centres undefined), for which the inhibition in assay [2] is 10.2% (inactive).

As to `O=C(CCn1c2c(c3ccccc31)CCCC2)NNC(=O)c1ccccc1[N+](=O)[O-]`, the inhibition in assay [2] is 2% (inactive).

`N#CCc1c(C#N)c(N)nc(N2CCN(c3ccc(F)cc3)CC2)c1C#N`: in assay [2], the inhibition is 4.37% (inactive).

In the case of `O=C1CC(Sc2nnc(-c3ccccc3O)o2)C(=O)N1c1ccccc1` (centres undefined), the inhibition in assay [2] was 9.02% (inactive). Turning to `O=C1NCCCc2c1oc1cc(Br)c(O)c(Br)c21`, the inhibition in assay [2] is 15.8% (inactive). Regarding `CCOc1ccc(NC(=O)C2CCC(N3C(=O)C4CC=CCC4C3=O)CC2)cc1` (centres undefined), the inhibition in assay [2] was 2.62% (inactive). As to `CCOC(=O)CSc1nc2cc(OC)ccc2cc1C#N`, the inhibition in assay [2] was 11.6% (inactive). Turning to `COc1ccc(C(=O)NCC(C)C)c(OC)c1`, in assay [2], the inhibition was 24.1% (inactive). As for `COc1ccc(C2(CNC(=O)c3cc([N+](=O)[O-])cc([N+](=O)[O-])c3)CCCC2)cc1OC`, the inhibition in assay [2] is 4.01% (inactive). Same read-out and setting: the value for `CCC(=O)c1ccc(N2CCOCC2)c(F)c1` was 10.3% (inactive).

As to `CCC(C(=O)OC)n1c(-c2ccccc2)nc2ccccc2c1=O` (centres undefined), the inhibition in assay [2] was 10.1% (inactive). Still for that read-out and setting: the value for `Cc1cc(SCc2cc(=O)[nH]c3ccccc23)nc2ccccc12` was -9.63% (inactive); that for `Cc1cc(C)c(C#N)c(=N)o1` was -5.81% (inactive). For `CCCC(=O)C1=C(O)C(C(=O)OC)C(C)(C)CC1=Nc1ccc(N)cc1` (centres undefined), the inhibition in assay [2] is 10.6% (inactive).

Broadly, the IC50 is the midpoint of a concentration-inhibition curve. By inhibition is commonly meant the drop in the measured response relative to a control, in per cent.
